Laboratory results taken from patent publication US11098032B2, “Pyran dervatives as CYP11A1 (cytochrome P450 monooxygenase 11A1) inhibitors” (ORION CORPORATION, priority 2016, dated 2021).

Molecular target: T1, CYP11A1 (Homo sapiens, UniProt P05108)
T1 construct: human H295R adrenocortical carcinoma cell line was used as source of enzyme; endogenous in cells; host or cells: H295R human adrenocortical carcinoma cells
T1 sequence (P05108 40-521): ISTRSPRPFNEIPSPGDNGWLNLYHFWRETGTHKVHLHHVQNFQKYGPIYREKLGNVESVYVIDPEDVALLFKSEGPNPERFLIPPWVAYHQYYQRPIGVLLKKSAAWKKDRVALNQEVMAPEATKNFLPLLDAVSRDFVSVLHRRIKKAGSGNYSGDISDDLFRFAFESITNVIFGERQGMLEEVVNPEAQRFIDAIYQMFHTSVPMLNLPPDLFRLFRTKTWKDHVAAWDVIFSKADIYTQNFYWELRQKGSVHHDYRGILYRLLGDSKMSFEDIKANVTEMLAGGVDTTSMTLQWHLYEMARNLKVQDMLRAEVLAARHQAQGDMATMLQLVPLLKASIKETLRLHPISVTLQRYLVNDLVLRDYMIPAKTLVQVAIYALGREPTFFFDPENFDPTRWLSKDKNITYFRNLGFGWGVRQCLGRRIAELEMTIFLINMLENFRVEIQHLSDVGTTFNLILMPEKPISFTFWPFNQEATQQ
Assay: CYP11A1 inhibition: modified isocaproic acid release assay (IARA) in H295R cells
Assay type: cell-based
Settings: human H295R adrenocortical carcinoma cells treated three days, 3 nM [24,25-3H]-labelled cholesterol, 1% DMSO, 10 concentrations in duplicates; read-out: IC50 of the test compounds on CYP11A1 inhibition
Experimental: The ability of the test compounds to inhibit conversion of cholesterole to pregnenolone and isocaproic acid was measured by modification of isocaproic acid release assay (IARA) described by Ruangwises et. al. (Biology of Reproduction 1991; 45(1):143-50) except that human H295R adrenocortical carcinoma cell line was used as source of enzyme and extraction was done with dextran-coated charcoal suspension (Isomaa, V. et al., Endocrinology 1982; 111(3):833-843). […] To determine the half maximal inhibitory concentration (IC50) of the test compounds on CYP11A1 inhibition, the cells were treated for three days with increasing concentrations of the test compounds in the presence of 3 nM [24,25-3H]-labelled cholesterol (American Radiolabelled Chemicals). The final DMSO concentration was 1%. Cell culture medium was extracted with dextran-coated charcoal suspension and the radiolabelled isocaproic acid was determined by mixing 100 μl of supernatant fraction in 200 μl of scintillation fluid (OptiPhase SuperMix, Perkin Elmer). Radioactivity was measured using a Microbeta scintillation counter (1450 MicroBeta Trilux, Wallac). All the test compounds were studied at 10 concentrations in duplicates.

IC50 [nM]	Structure (SMILES)
< 150	CN(CCC#N)S(=O)(=O)c1ccc(COc2coc(CN3Cc4ccccc4C3)cc2=O)cc1 [Compound 23, N-(2-Cyanoethyl)-4-(((6-(isoindolin-2-ylmethyl)-4-oxo-4H-pyran-3-yl)oxy)-methyl)-N-methylbenzenesulfonamide]
< 150	CNS(=O)(=O)c1ccc(COc2coc(CN3Cc4ccccc4C3)cc2=O)cc1 [Compound 8, 4-(((6-(Isoindolin-2-ylmethyl)-4-oxo-4H-pyran-3-yl)oxy)methyl)-N-methylbenzenesulfonamide]
150 to 300	O=c1cc(CN2Cc3ccccc3C2)occ1OCc1ccc(S(=O)(=O)C2COC2)cc1 [Compound 233, 2-(Isoindolin-2-ylmethyl)-5-((4-(oxetan-3-ylsulfonyl)benzyl)oxy)-4H-pyran-4-one]
150 to 300	CC(C)S(=O)(=O)c1ccc(COc2coc(CN3Cc4ccccc4C3)cc2=O)cc1 [Compound 25, 2-(Isoindolin-2-ylmethyl)-5-((4-(isopropylsulfonyl)benzyl)oxy)-4H-pyran-4-one]
301 to 2000	O=c1cc(CN2Cc3ccccc3C2)occ1OCc1ccc([N+](=O)[O-])cc1 [Compound 38, 2-(Isoindolin-2-ylmethyl)-5-((4-nitrobenzyl)oxy)-4H-pyran-4-one]
< 150	N=S(=O)(c1ccc(COc2coc(CN3Cc4ccccc4C3)cc2=O)cc1)C1CCC1 (centres unmarked) [Compound 71, 5-((4-(Cyclobutanesulfonimidoyl)benzyl)oxy)-2-(isoindolin-2-ylmethyl)-4H-pyran-4-one]
150 to 300	O=c1cc(CN2Cc3ccccc3C2)occ1OCc1ccc(S(=O)(=O)N2CCCCC2)cc1 [Compound 7, 2-(Isoindolin-2-ylmethyl)-5-((4-(piperidin-1-ylsulfonyl)benzyl)oxy)-4H-pyran-4-one]
150 to 300	CSc1ccc(COc2coc(CN3Cc4ccccc4C3)cc2=O)cc1 [Compound 82, 2-(Isoindolin-2-ylmethyl)-5-((4-(methylthio)benzyl)oxy)-4H-pyran-4-one]
301 to 2000	NC(=O)c1ccc(COc2coc(CN3Cc4ccccc4C3)cc2=O)cc1F [Compound 171, 2-Fluoro-4-(((6-(isoindolin-2-ylmethyl)-4-oxo-4H-pyran-3-yl)oxy)methyl)-benzamide]
150 to 300	CC(C)NC(=O)c1ccc(COc2coc(CN3Cc4ccccc4C3)cc2=O)cc1 [Compound 140, 4-(((6-(Isoindolin-2-ylmethyl)-4-oxo-4H-pyran-3-yl)oxy)methyl)-N-isopropylbenzamide]
< 150	COC(=O)/C=C/c1ccc(COc2coc(CN3Cc4ccccc4C3)cc2=O)cc1 [Compound 2, Methyl (E)-3-(4-(((6-(isoindolin-2-ylmethyl)-4-oxo-4H-pyran-3-yl)oxy)-methyl)phenyl)acrylate]
301 to 2000	NC(=O)c1ccc(COc2coc(CN3CCc4ccccc4C3)cc2=O)cc1 [Compound 43, 4-(((6-((3,4-Dihydroisoquinolin-2(1H)-yl)methyl)-4-oxo-4H-pyran-3-yl)oxy)-methyl)benzamide]

The next lines start with the molecule.

Structure (SMILES)	IC50 [nM]
O=c1cc(CN2Cc3ccc(C(F)(F)F)cc3C2)occ1OCC1CCN(S(=O)(=O)C2COC2)CC1 [Compound 69a, 5-((1-(Oxetan-3-ylsulfonyl)piperidin-4-yl)methoxy)-2-((5-(trifluoromethyl)-isoindolin-2-yl)methyl)-4H-pyran-4-one]	< 150
CS(=O)(=O)c1ccc(COc2coc(CN3Cc4cc5c(cc4C3)OCO5)cc2=O)cc1 [Compound 66, 2-((5,7-Dihydro-6H-[1,3]dioxolo[4,5-f]isoindol-6-yl)methyl)-5-((4-(methyl-sulfonyl)benzyl)oxy)-4H-pyran-4-one]	301 to 2000
O=C(NC1CCSC1=O)c1ccc(COc2coc(CN3Cc4ccccc4C3)cc2=O)cc1 (centres unmarked) [Compound 96, 4-(((6-(Isoindolin-2-ylmethyl)-4-oxo-4H-pyran-3-yl)oxy)methyl)-N-(2-oxotetra-hydrothiophen-3-yl)benzamide]	301 to 2000
CC(C)(C)OC(=O)N1CC[C@H](COc2coc(CN3Cc4ccccc4C3)cc2=O)C1 [Compound 200, (S)-tert-Butyl 3-(((6-(isoindolin-2-ylmethyl)-4-oxo-4H-pyran-3-yl)oxy)methyl)-pyrrolidine-1-carboxylate]	150 to 300
CS(=O)(=O)N1CCC(COc2coc(CN3Cc4ccc(C(F)(F)F)cc4C3)cc2=O)CC1 [Compound 184, 5-((1-(Methylsulfonyl)piperidin-4-yl)methoxy)-2-((5-(trifluoromethyl)isoindolin-2-yl)methyl)-4H-pyran-4-one]	< 150
CS(=O)(=O)c1ccc(COc2coc(CN3Cc4cc(F)c(F)cc4C3)cc2=O)cc1 [Compound 26, 2-((5,6-Difluoroisoindolin-2-yl)methyl)-5-((4-(methylsulfonyl)benzyl)oxy)-4H-pyran-4-one]	150 to 300
O=C(c1ccco1)N1CCC(COc2coc(CN3Cc4ccccc4C3)cc2=O)CC1 [Compound 260, 5-((1-(Furan-2-carbonyl)piperidin-4-yl)methoxy)-2-(isoindolin-2-ylmethyl)-4H-pyran-4-one]	150 to 300
COCc1cccnc1N1CCN(C(=O)COc2coc(CN3Cc4ccccc4C3)cc2=O)CC1 [Compound 159, 2-(Isoindolin-2-ylmethyl)-5-(2-(4-(3-(methoxymethyl)pyridin-2-yl)piperazin-1-yl)-2-oxoethoxy)-4H-pyran-4-one]	301 to 2000
CS(=O)(=O)c1ccc(COc2coc(CN3Cc4ccc(F)cc4C3)cc2=O)cc1 [Compound 63, 2-((5-Fluoroisoindolin-2-yl)methyl)-5-((4-(methylsulfonyl)benzyl)oxy)-4H-pyran-4-one]	150 to 300
O=C(c1ccc(COc2coc(CN3Cc4ccccc4C3)cc2=O)c(F)c1)N1CCC1 [Compound 95, 5-((4-(Azetidine-1-carbonyl)-2-fluorobenzyl)oxy)-2-(isoindolin-2-ylmethyl)-4H-pyran-4-one]	< 150
O=C(NC1CC1)N1CCC(COc2coc(CN3Cc4ccccc4C3)cc2=O)CC1 [Compound 247, N-Cyclopropyl-4-(((6-(isoindolin-2-ylmethyl)-4-oxo-4H-pyran-3-yl)oxy)-methyl)piperidine-1-carboxamide]	150 to 300
CC(C)(C)OC(=O)N1CC[C@@H](COc2coc(CN3Cc4ccccc4C3)cc2=O)C1 [Compound 199, (R)-tert-Butyl 3-(((6-(isoindolin-2-ylmethyl)-4-oxo-4H-pyran-3-yl)oxy)methyl)-pyrrolidine-1-carboxylate]	150 to 300
CSc1ccc2c(c1)CN(Cc1cc(=O)c(OCC3CCN(S(C)(=O)=O)CC3)co1)C2 [Compound 208, 5-((1-(Methylsulfonyl)piperidin-4-yl)methoxy)-2-((5-(methylthio)isoindolin-2-yl)methyl)-4H-pyran-4-one]	150 to 300
CC(C)(C)OC(=O)N1CCC[C@@H](COc2coc(CN3Cc4ccccc4C3)cc2=O)C1 [Compound 202, (R)-tert-Butyl 3-(((6-(isoindolin-2-ylmethyl)-4-oxo-4H-pyran-3-yl)oxy)methyl)-piperidine-1-carboxylate]	301 to 2000
CN(C)C(=O)c1c(F)cc(COc2coc(CN3Cc4ccccc4C3)cc2=O)cc1F [Compound 174, 2,6-Difluoro-4-(((6-(isoindolin-2-ylmethyl)-4-oxo-4H-pyran-3-yl)oxy)methyl)-N,N-dimethylbenzamide]	150 to 300
CN1Cc2cc(COc3coc(CN4Cc5ccccc5C4)cc3=O)ccc2C1=O [Compound 106, 5-(((6-(Isoindolin-2-ylmethyl)-4-oxo-4H-pyran-3-yl)oxy)methyl)-2-methyl-isoindolin-1-one]	301 to 2000
O=C(COc1coc(CN2Cc3ccccc3C2)cc1=O)N1CCN(Cc2ccccc2)CC1 [Compound 153, 5-(2-(4-Benzylpiperazin-1-yl)-2-oxoethoxy)-2-(isoindolin-2-ylmethyl)-4H-pyran-4-one]	301 to 2000
CCS(=O)(=O)N1CCC(COc2coc(CN3Cc4ccccc4C3)cc2=O)CC1 [Compound 188, 5-((1-(Ethylsulfonyl)piperidin-4-yl)methoxy)-2-(isoindolin-2-ylmethyl)-4H-pyran-4-one]	< 150
CNC(=S)N1CCC(COc2coc(CN3Cc4ccccc4C3)cc2=O)CC1 [Compound 250, 4-(((6-(Isoindolin-2-ylmethyl)-4-oxo-4H-pyran-3-yl)oxy)methyl)-N-methyl-piperidine-1-carbothioamide]	150 to 300
CNC(=O)C1CCC(COc2coc(CN3Cc4ccccc4C3)cc2=O)CC1 (centres unmarked) [Compound 227, 4-(((6-(Isoindolin-2-ylmethyl)-4-oxo-4H-pyran-3-yl)oxy)methyl)-N-methylcyclo-hexanecarboxamide]	150 to 300
